Tests used:
PBMC = settings: 12.5 µM

Compound | Average (percentage cell inhibition), Dmastoparan MDA-MB231 12.5uM (MDA-MB-231 cells) | Average (percentage cell inhibition), Mastoparan PBMC (PBMC)
CC[C@H](C)[C@H](N)C(=O)N[C@@H](CC(N)=O)C(=O)N[C@@H](CC(C)C)C(=O)N[C@@H](CCCCN)C(=O)N[C@@H](C)C(=O)N[C@H](C(=O)N[C@@H](C)C(=O)N[C@@H](C)C(=O)N[C@@H](CC(C)C)C(=O)N[C@@H](C)C(=O)N[C@@H](CCCCN)C(=O)N[C@@H](CCCCN)C(=O)N[C@H](C(=O)N[C@@H](CC(C)C)C(N)=O)[C@@H](C)CC)[C@@H](C)CC [I6] | 31.3138% | 13.3589%
CC[C@H](C)[C@H](N)C(=O)N[C@@H](CC(N)=O)C(=O)N[C@@H](CC(C)C)C(=O)N[C@@H](CCCCN)C(=O)N[C@@H](C)C(=O)N[C@@H](CC(C)C)C(=O)N[C@H](C(=O)N[C@@H](C)C(=O)N[C@@H](CC(C)C)C(=O)N[C@@H](C)C(=O)N[C@@H](CCCCN)C(=O)N[C@@H](CCCCN)C(=O)N[C@H](C(=O)N[C@@H](CC(C)C)C(N)=O)[C@@H](C)CC)[C@@H](C)CC [I7] | 72.6071% | 39.466%
CC[C@H](C)[C@H](N)C(=O)N[C@@H](CC(N)=O)C(=O)N[C@@H](CC(C)C)C(=O)N[C@@H](CCCCN)C(=O)N[C@@H](C)C(=O)N[C@@H](CC(C)C)C(=O)N[C@@H](C)C(=O)N[C@H](C(=O)N[C@@H](CC(C)C)C(=O)N[C@@H](C)C(=O)N[C@@H](CCCCN)C(=O)N[C@@H](CCCCN)C(=O)N[C@H](C(=O)N[C@@H](CC(C)C)C(N)=O)[C@@H](C)CC)[C@@H](C)CC [I8] | 40.0855% | 17.9616%
CC[C@H](C)[C@H](N)C(=O)N[C@@H](CC(N)=O)C(=O)N[C@@H](CC(C)C)C(=O)N[C@@H](CCCCN)C(=O)N[C@@H](C)C(=O)N[C@@H](CC(C)C)C(=O)N[C@@H](C)C(=O)N[C@@H](C)C(=O)N[C@H](C(=O)N[C@@H](C)C(=O)N[C@@H](CCCCN)C(=O)N[C@@H](CCCCN)C(=O)N[C@H](C(=O)N[C@@H](CC(C)C)C(N)=O)[C@@H](C)CC)[C@@H](C)CC [I9] | 25.9927% | 12.8506%
CC[C@H](C)[C@H](N)C(=O)N[C@@H](CC(N)=O)C(=O)N[C@@H](CC(C)C)C(=O)N[C@@H](CCCCN)C(=O)N[C@@H](C)C(=O)N[C@@H](CC(C)C)C(=O)N[C@@H](C)C(=O)N[C@@H](C)C(=O)N[C@@H](CC(C)C)C(=O)N[C@H](C(=O)N[C@@H](CCCCN)C(=O)N[C@@H](CCCCN)C(=O)N[C@H](C(=O)N[C@@H](CC(C)C)C(N)=O)[C@@H](C)CC)[C@@H](C)CC [I10] | 54.8759% | 25.836%
CC[C@H](C)[C@H](N)C(=O)N[C@@H](CC(N)=O)C(=O)N[C@@H](CC(C)C)C(=O)N[C@@H](CCCCN)C(=O)N[C@@H](C)C(=O)N[C@@H](CC(C)C)C(=O)N[C@@H](C)C(=O)N[C@@H](C)C(=O)N[C@@H](CC(C)C)C(=O)N[C@@H](C)C(=O)N[C@H](C(=O)N[C@@H](CCCCN)C(=O)N[C@H](C(=O)N[C@@H](CC(C)C)C(N)=O)[C@@H](C)CC)[C@@H](C)CC [I11] | 36.5354% | 5.295%
CC[C@H](C)[C@H](N)C(=O)N[C@@H](CC(N)=O)C(=O)N[C@@H](CC(C)C)C(=O)N[C@@H](CCCCN)C(=O)N[C@@H](C)C(=O)N[C@@H](CC(C)C)C(=O)N[C@@H](C)C(=O)N[C@@H](C)C(=O)N[C@@H](CC(C)C)C(=O)N[C@@H](C)C(=O)N[C@@H](CCCCN)C(=O)N[C@H](C(=O)N[C@H](C(=O)N[C@@H](CC(C)C)C(N)=O)[C@@H](C)CC)[C@@H](C)CC [I12] | 44.3343% | 20.8332%
CC[C@H](C)[C@H](N)C(=O)N[C@@H](CC(N)=O)C(=O)N[C@@H](CC(C)C)C(=O)N[C@@H](CCCCN)C(=O)N[C@@H](C)C(=O)N[C@@H](CC(C)C)C(=O)N[C@@H](C)C(=O)N[C@@H](C)C(=O)N[C@@H](CC(C)C)C(=O)N[C@@H](C)C(=O)N[C@@H](CCCCN)C(=O)N[C@@H](CCCCN)C(=O)N[C@H](C(=O)N[C@H](C(N)=O)[C@@H](C)CC)[C@@H](C)CC [I14] | 33.7751% | 14.5337%
CC[C@H](C)[C@H](NC(=O)[C@H](CCCCN)NC(=O)[C@H](CCCCN)NC(=O)[C@H](C)NC(=O)[C@H](CC(C)C)NC(=O)[C@H](C)NC(=O)[C@H](C)NC(=O)[C@H](CC(C)C)NC(=O)[C@H](C)NC(=O)[C@H](CCCCN)NC(=O)[C@H](CC(C)C)NC(=O)[C@H](CC(N)=O)NC(=O)[C@@H](N)CCCCN)C(=O)N[C@@H](CC(C)C)C(N)=O [K1] | 35.9182% | 1.227%
CC[C@H](C)[C@H](N)C(=O)N[C@@H](CCCCN)C(=O)N[C@@H](CC(C)C)C(=O)N[C@@H](CCCCN)C(=O)N[C@@H](C)C(=O)N[C@@H](CC(C)C)C(=O)N[C@@H](C)C(=O)N[C@@H](C)C(=O)N[C@@H](CC(C)C)C(=O)N[C@@H](C)C(=O)N[C@@H](CCCCN)C(=O)N[C@@H](CCCCN)C(=O)N[C@H](C(=O)N[C@@H](CC(C)C)C(N)=O)[C@@H](C)CC [K2] | 44.3131% | 14.3506%
CC[C@H](C)[C@H](N)C(=O)N[C@@H](CC(N)=O)C(=O)N[C@@H](CCCCN)C(=O)N[C@@H](CCCCN)C(=O)N[C@@H](C)C(=O)N[C@@H](CC(C)C)C(=O)N[C@@H](C)C(=O)N[C@@H](C)C(=O)N[C@@H](CC(C)C)C(=O)N[C@@H](C)C(=O)N[C@@H](CCCCN)C(=O)N[C@@H](CCCCN)C(=O)N[C@H](C(=O)N[C@@H](CC(C)C)C(N)=O)[C@@H](C)CC [K3] | 21.542% | -9.841%
CC[C@H](C)[C@H](N)C(=O)N[C@@H](CC(N)=O)C(=O)N[C@@H](CC(C)C)C(=O)N[C@@H](CCCCN)C(=O)N[C@@H](CCCCN)C(=O)N[C@@H](CC(C)C)C(=O)N[C@@H](C)C(=O)N[C@@H](C)C(=O)N[C@@H](CC(C)C)C(=O)N[C@@H](C)C(=O)N[C@@H](CCCCN)C(=O)N[C@@H](CCCCN)C(=O)N[C@H](C(=O)N[C@@H](CC(C)C)C(N)=O)[C@@H](C)CC [K5] | 39.1552% | 10.3023%
CC[C@H](C)[C@H](N)C(=O)N[C@@H](CC(N)=O)C(=O)N[C@@H](CC(C)C)C(=O)N[C@@H](CCCCN)C(=O)N[C@@H](C)C(=O)N[C@@H](CCCCN)C(=O)N[C@@H](C)C(=O)N[C@@H](C)C(=O)N[C@@H](CC(C)C)C(=O)N[C@@H](C)C(=O)N[C@@H](CCCCN)C(=O)N[C@@H](CCCCN)C(=O)N[C@H](C(=O)N[C@@H](CC(C)C)C(N)=O)[C@@H](C)CC [K6] | 7.2133% | -1.883%
CC[C@H](C)[C@H](N)C(=O)N[C@@H](CC(N)=O)C(=O)N[C@@H](CC(C)C)C(=O)N[C@@H](CCCCN)C(=O)N[C@@H](C)C(=O)N[C@@H](CC(C)C)C(=O)N[C@@H](CCCCN)C(=O)N[C@@H](C)C(=O)N[C@@H](CC(C)C)C(=O)N[C@@H](C)C(=O)N[C@@H](CCCCN)C(=O)N[C@@H](CCCCN)C(=O)N[C@H](C(=O)N[C@@H](CC(C)C)C(N)=O)[C@@H](C)CC [K7] | 38.2404% | 5.806%
CC[C@H](C)[C@H](N)C(=O)N[C@@H](CC(N)=O)C(=O)N[C@@H](CC(C)C)C(=O)N[C@@H](CCCCN)C(=O)N[C@@H](C)C(=O)N[C@@H](CC(C)C)C(=O)N[C@@H](C)C(=O)N[C@@H](CCCCN)C(=O)N[C@@H](CC(C)C)C(=O)N[C@@H](C)C(=O)N[C@@H](CCCCN)C(=O)N[C@@H](CCCCN)C(=O)N[C@H](C(=O)N[C@@H](CC(C)C)C(N)=O)[C@@H](C)CC [K8] | 44.6441% | 13.8127%
CC[C@H](C)[C@H](N)C(=O)N[C@@H](CC(N)=O)C(=O)N[C@@H](CC(C)C)C(=O)N[C@@H](CCCCN)C(=O)N[C@@H](C)C(=O)N[C@@H](CC(C)C)C(=O)N[C@@H](C)C(=O)N[C@@H](C)C(=O)N[C@@H](CCCCN)C(=O)N[C@@H](C)C(=O)N[C@@H](CCCCN)C(=O)N[C@@H](CCCCN)C(=O)N[C@H](C(=O)N[C@@H](CC(C)C)C(N)=O)[C@@H](C)CC [K9] | 18.9586% | -2.726%
CC[C@H](C)[C@H](N)C(=O)N[C@@H](CC(N)=O)C(=O)N[C@@H](CC(C)C)C(=O)N[C@@H](CCCCN)C(=O)N[C@@H](C)C(=O)N[C@@H](CC(C)C)C(=O)N[C@@H](C)C(=O)N[C@@H](C)C(=O)N[C@@H](CC(C)C)C(=O)N[C@@H](CCCCN)C(=O)N[C@@H](CCCCN)C(=O)N[C@@H](CCCCN)C(=O)N[C@H](C(=O)N[C@@H](CC(C)C)C(N)=O)[C@@H](C)CC [K10] | 22.5673% | 0.05559%
CC[C@H](C)[C@H](N)C(=O)N[C@@H](CC(N)=O)C(=O)N[C@@H](CC(C)C)C(=O)N[C@@H](CCCCN)C(=O)N[C@@H](C)C(=O)N[C@@H](CC(C)C)C(=O)N[C@@H](C)C(=O)N[C@@H](C)C(=O)N[C@@H](CC(C)C)C(=O)N[C@@H](C)C(=O)N[C@@H](CCCCN)C(=O)N[C@@H](CCCCN)C(=O)N[C@@H](CCCCN)C(=O)N[C@@H](CC(C)C)C(N)=O [K13] | 29.9957% | 5%
